Measurements taken from patent publication US20240101548A1, “HYDROXAMATE COMPOUND, PREPARATION METHOD THEREFOR AND APPLICATION THEREOF” (SHENZHEN CHIPSCREEN BIOSCIENCES CO., LTD., priority 2020, published 2024).

Legend:
[1] = test system: INF-α-induced pSTAT5 in human PBMC; assay: INF-α-induced pSTAT5 in human PBMC (FACS, CD3 positive cells); format: cell-based; details: Homo sapiens, PBMC, IFN-α 30 ng/ml, read-out: Inhibition activity IC50 on INF-α-induced pSTAT5 in human PBMC
Experimental: hPBMC (available from Shanghai AoNeng Biotechnology Co., Ltd.) was inoculated in 96-well plate, added with compound of the present invention (at concentrations of 40 nM and 200 nM), incubated for 60 min (compound in concentrations of 2 nM, 10 nM respectively during the incubation); added with 30 ng/ml of stimulating factor IFN-α (BioLegend) together with anti-CD3 antibody (Biolegend) and then continued to be incubated for 30 min. After the incubation, each well was added with 1 mL of fixing solution (BD Biosciences), the obtained mixture was incubated for 10 min followed by centrifugation, added with 400 μL/well of Perm III (BD Biosciences), followed by further incubation at 4° C. for 30 min. The obtained mixture was added with mouse anti-human pSTAT5 antibody (Alexa Fluor® 647 Conjugate), followed by incubation at room temperature for 40 min. Fluorescence intensity of pSTAT5 in CD3 positive cells was detected by FACS.
Inhibition rate at individual compound concentration was calculated with the following formula:
Inhibition rate=(MFI value(IFN-α-stimulated control)−MI value(2/10 nM compound treated group)/MFI value(IFN-α-stimulated control)[…]
wherein: MFI value meant fluorescence intensity value; IFN-α-stimulated control meant control group which was operated similarly to the experimental groups but no compound of the present invention was added.

TYK2 JH2 domain = TYK2 JH2 domain (Homo sapiens (Human), UniProt P29597); assay: TYK2 JH2 domain FRET tracer assay; format: binding; details: FRET 665/615 nm; read-out: Inhibition activity IC50 on TYK2 JH2 domain
Sequence of TYK2 JH2 domain (P29597 589-875): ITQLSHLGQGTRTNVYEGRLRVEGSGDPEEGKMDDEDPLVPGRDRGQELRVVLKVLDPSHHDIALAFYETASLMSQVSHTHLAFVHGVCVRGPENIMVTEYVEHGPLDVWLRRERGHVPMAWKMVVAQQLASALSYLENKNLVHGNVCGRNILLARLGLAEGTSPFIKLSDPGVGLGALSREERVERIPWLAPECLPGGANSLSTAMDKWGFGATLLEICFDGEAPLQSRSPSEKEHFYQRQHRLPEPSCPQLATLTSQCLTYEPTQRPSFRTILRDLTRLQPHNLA
Experimental: Compound of the present invention formulated into different concentrations (series 3 times dilutions, started from 60 μM, 11 concentrations in total) was added to 384-well plate, followed by 5 μL of enzyme (i.e., TYK2 JH2 domain), Tb antibody (Cisbio) and tracer. The mixture was incubated at 25° C. for 60 min and left at 4° C. overnight.

[2] = test system: IL-2-induced JAK1/JAK3 signal pathway; assay: IL-2-induced proliferation of KHYG-1 cells (JAK1/JAK3 signal); format: cell-based, human; details: Homo sapiens; KHYG-1 cell proliferation, IL-2 10 ng/mL, 72 hours; read-out: Inhibition activity IC50 on IL-2-induced JAK1/JAK3 signal pathway
How it was run: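 Controls were wells lacking both compound and cytokine (0%) and compound-free IL-2 wells (100%). C50 was calculated from inhibition rates across doses.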

[3] = test system: EPO-induced JAK2 signal pathway; assay: EPO-induced proliferation of UT-7 cells (JAK2 signal); format: cell-based, human; details: Homo sapiens, UT7; UT-7 cell proliferation, EPO 10 ng/mL, 72 hours; read-out: Inhibition activity IC50 on EPO-induced JAK2 signal pathway
How it was run: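 […] was derived from inhibition rates across doses, scaled between wells lacking compound and cytokine (0) and EPO without compound (100), using alamarBlue fluorescence at Ex530/Em590. Compound (final 0-10000 nM) and 10 ng/mL EPO were given to UT-7 cells at 15000 per well for 72 h at 37° C.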

[4] = In-vivo pharmacokinetic test in mice; details: mouse, po; BALB/c female mice, gavage 10 mg/kg, plasma
Experimental: LC-MS/MS method is used to determine the drug concentration in the plasma of mice at different times after intragastric administration of the compound of the example. Relevant pharmacokinetic parameters are calculated to study the pharmacokinetic behavior of the compound of the present invention in mice, thereby evaluating the pharmacokinetic characteristics thereof.
Test animal was healthy adult BALB/c female mouse (provided by Chengdu Yaokang Biotechnology Co., Ltd.);
Compound administration and sample collection: compound was administered to BALB/c female mice by gavage (10 mg/kg). At 0.25, 0.5, 1, 2, 4, 6, 8, and 24 hours after administration, 60 μL of whole blood of the mouse fundus venous plexus were collected and centrifuged at 4000 rpm for 10 min to provide plasma.
Sample analysis: 10 μL of mouse plasma samples were respectively added with 290 μL of acetonitrile solution containing internal standard to precipitate proteins. After swirling for 10 min and centrifuging at 4000 rpm for 10 min, 200 μL of supernatant was added to 96-well plate, and analyzed by LC-MS/MS at an injection volume of 1 μL.

SMILES | IC50 [1] | IC50 (TYK2 JH2 domain) | IC50 [2] | IC50 [3] | AUC [4] | Cmax [4]
CCONC(=O)c1cnc(Nc2cc(C)nc(C)n2)cc1Nc1ccc(C(F)(F)F)cc1N(C)S(C)(=O)=O [Example 202, 6-((2,6-dimethylpyrimidin-4-yl)amino)-N-ethoxy-4-((2-(N-methylmethanesulfonamido)-4-(trifluoromethyl)phenyl)amino)nicotinamide] | < 2 nM | 0.06 nM | > 10000 nM | > 10000 nM |  | 
CCONC(=O)c1cnc(Nc2cc(C)nc(C)n2)cc1Nc1cccc(-c2ncccn2)c1OC [Example 212] | < 2 nM | 0.05 nM | > 10000 nM | > 10000 nM | 16.3 µM·h | 15 µM
CCONC(=O)c1cnc(Nc2cc(C)nc(C)n2)cc1Nc1cc(F)cc(-c2ncccn2)c1OC [Example 215, 6-((2,6-dimethylpyrimidin-4-yl)amino)-N-ethoxy-4-((5-fluoro-2-methoxy-3-(pyrimidin-2-yl)phenyl)amino)nicotinamide] | < 2 nM | 0.07 nM | > 10000 nM | > 10000 nM | 25.8 µM·h | 13.6 µM
CCONC(=O)c1cnc(NC(=O)C2CC2)cc1Nc1cccc(-c2ncc(Cl)cn2)c1OC [Example 219, 4-((3-(5-chloropyrimidin-2-yl)-2-methoxyphenyl)amino)-6-(cyclopropylcarboxamido)-N-ethoxy nicotinamide] | < 2 nM | 0.13 nM | > 10000 nM | > 10000 nM | 16.8 µM·h | 10.3 µM
CCONC(=O)c1cnc(Nc2cc(C)nc(C)n2)cc1Nc1cccc(-c2ncc(C)cn2)c1OC [Example 238, 6-((2,6-dimethylpyrimidin-4-yl)amino)-N-ethoxy-4-((2-methoxy-3-(5-methylpyrimidin-2-yl)phenyl)amino)nicotinamide] | < 2 nM |  | > 10000 nM | > 10000 nM | 39.9 µM·h | 15.1 µM
